The results in this text go back to PubChem BioAssay AID179 (DTP/NCI, 2004).

pEC50, pIC50: −log10 of the molar value. Calls of active or inactive are those of the source.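 How the source made its calls: active means compounds giving half or more protection of infected cells from virus-caused growth loss, again on retest; inactive means the rest.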 Where a SMILES comes first, the peptide text is derived from it. The star is where a group is joined. OBn = c1ccc(CO*)cc1

The subject of this assay is CEM cells HIV-1 protection, formazan growth assay. The experiment in a line: NCI AIDS Antiviral Assay. Particulars: for pIC50: measured here: growth of uninfected CEM cells. In short, it runs like this:
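Human CEM cells, uninfected and HIV-1-infected, received five drug concentrations, and growth was read by soluble formazan assay. Compounds giving at least 50% protection were retested; reproducible 100% protection defined confirmed active.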

With `O=C1C2CCC(N1CCc1ccccc1)n1c(=O)n(-c3ccccc3)c(=O)n12` (stereo unspecified), the pEC50 was under 3.70 and the pIC50 was under 3.70.
As for `Cc1cccc(N(C(=O)Nc2ccc(Cl)c(Cl)c2)C2=NCC(C)S2)c1` (stereo unspecified), the pEC50 is under 3.70 and the pIC50 is under 3.70.
As to `Cc1nn(C(=O)CC(=O)Nc2ccc(Cl)cc2)c(C)c1N=Nc1ccccc1C(=O)O`, the pEC50 is under 4.37 and the pIC50 is under 4.37.
Turning to `O=P(c1ccccc1)(c1ccccc1)C1CC=C(c2ccccc2)C2(CCCC2)C1` (stereo unspecified), the pEC50 was under 5.06 and the pIC50 was under 5.06.
Take `CC(CCC=C(c1cc(Cl)c(O)c(C(=O)O)c1)c1cc(Cl)c(O)c(C(=O)O)c1)C1CCC2[C@@H]3CC[C@@H]4CC(F)(F)CC[C@]4(C)C3CC[C@]12C` (stereo partly specified): the pEC50 was under 3.77 and the pIC50 is 4.42.
`O=[N+]([O-])c1ccc(-c2csc(=[N+]3CCCCC3)s2)cc1`: the result was inactive.
As to `O=C(CC1(O)C(=O)Nc2c(Cl)cc(Cl)cc21)c1cccc([N+](=O)[O-])c1` (stereo unspecified), the pEC50 is under 4.72 and the pIC50 was under 4.72.
Consider `CNC(=S)OCCC(C)CCCC(C)C` (stereo unspecified), for which the result was inactive.
Turning to `O=[N+]([O-])c1cc2n[nH]nc2c2nonc12`, the pEC50 is under 3.70 and the pIC50 was 5.32.
On to `COC(=O)c1sc2c(SC#N)c3ccccn3c2c1C`, for which the outcome was inactive.
Turning to `CC1(C)N=C(N)N=C(N)N1c1cccc(N)c1.[Sn]`, the outcome was inactive.
Regarding `O=C1NCN(C2CCCCC2)CN1`, the pEC50 was under 3.70 and the pIC50 was under 3.70.
Consider `c1ccc(CNc2nnc(NCc3ccccc3)c3c2ncn3Cc2ccccc2)cc1`, for which the outcome was inactive.
For `CCC12C=CCN3CC[C@@]4(c5cc([C@@]6(C(=O)OC)CC7CN(CCc8c6[nH]c6ccccc86)C[C@](O)(CC)C7)c(OC)cc5N(C)[C@H]4[C@]4(OCOC4=O)[C@@H]1O)C32` (stereo partly specified), the outcome was inactive.
Take `Cn1nc(-c2ccc(Cl)c(Cl)c2)nc2c(=O)n(C)c(=O)nc1-2`: the pEC50 is under 3.70 and the pIC50 was 5.42.
Turning to `O=[N+]([O-])c1ccc(C2=CSC3=NCCN23)cc1`, the outcome was inactive.
Consider `COc1cc2c[n+](C)c3c4ccccc4ccc3c2cc1OC` (tested in a mixture with another compound), for which the pEC50 is under 3.77 and the pIC50 was 5.22.
As for `Cc1ccc([N+](=O)[O-])cc1NC(=O)N1CCCCC1C` (stereo unspecified), the pEC50 is under 3.70 and the pIC50 is under 4.00.
Regarding `COc1cc2c3c(ccc2cc1O)-c1cc(OC)c(OC)cc1C[N+]3(C)C`, the pEC50 is under 5.35 and the pIC50 is under 5.35.
As to `CC(=O)CCN1CC2CN=NC2(C#N)C1` (stereo unspecified), the pEC50 was under 3.70 and the pIC50 was 4.33.
As for `CC(=O)NC(C(=O)N1CCCC1C(=O)OCc1ccccc1)C(C)C` (stereo not drawn) (Ac-Val-Pro-OBn; configuration not given here), the pEC50 is under 3.70 and the pIC50 was 3.95.
With `COc1ccc(CCN2C(=O)C(=O)c3ccccc32)cc1OC`, the pEC50 was under 4.08 and the pIC50 was 4.32.
As for `O=C(/C=C/c1ccc(Cl)c(Cl)c1)c1ccc(F)cc1`, the pEC50 was under 5.73 and the pIC50 is under 5.73.
With `C[Si](C)(C)/C=C\CCNCc1ccccc1`, the pEC50 is under 3.11 and the pIC50 is under 3.11.
With `O=C1c2c(O)cccc2Cc2cc(CO)cc(O)c21`, the pEC50 is under 3.70 and the pIC50 was 6.03.
Turning to `CCC1OC(=O)C(C)C(OC2CC(C)(O)C(O)C(C)O2)C(C)C(O)C(C)(O)CC(C)C(=O)C(C)C(O)C1C` (stereo unspecified), the pEC50 is under 3.64 and the pIC50 is 4.67.
For `O=[N+]([O-])c1ccc(C2=NOC3COC4C=CC=CC4OCC23)cc1` (stereo unspecified) the same measures were under 4.52 and under 4.52.
On to `C[C@@H]1Cc2c(-c3cc(-c4cc(-c5c(O)cc(O)c6c5C[C@@H](C)N[C@@H]6C)c5ccccc5c4O)c(O)c4ccccc34)c(O)cc(O)c2[C@@H](C)N1`, for which the pEC50 is 3.94 and the pIC50 was under 3.70.
For `CCOC(=O)C(=CNc1cccc(NC=C(C(=O)OCC)C(=O)OCC)c1)C(=O)OCC` the same measures were under 3.70 and 4.72.
As to `Cc1ccc(NCC(=O)N2CC(=O)Nc3ccccc32)c(C)c1`, the pEC50 was under 4.77 and the pIC50 was under 4.77.
On to `CN(C)c1ccc(/C=C(\NC(=O)c2ccccc2)c2nc3ccc4c(c3[nH]2)C(=O)c2ccccc2C4=O)cc1`, for which the result was inactive.
Consider `COC(=O)CC1CCC(c2ccn(S(=O)(=O)c3ccccc3)c2)=NO1` (stereo unspecified), for which the pEC50 was under 3.70 and the pIC50 was under 3.70.
For `CN(C)C1(C(=O)O)CC1`, the pEC50 is under 3.70 and the pIC50 was under 3.70.
For the compound `CC/C(=C(\c1ccccc1)c1ccc(OCC[N+](C)(C)C)cc1)c1ccccc1`, the outcome was inactive.
Consider `COCCOCCOCCC(=O)NC1CC2CCC1(C)C2(C)C` (stereo unspecified), for which the pEC50 is under 3.70 and the pIC50 is under 3.70.
`CCOC(=O)C(C(=O)OCC)=c1sc(=C(C(=O)OCC)C(=O)OCC)s1`: the outcome was inactive.
As to `C=CCOc1cc(NC(=S)c2ccoc2C)ccc1OC`, the pEC50 was 6.85 and the pIC50 was 3.93.
As to `N#Cc1c(O)c(/C=N/c2ncccn2)c(=O)n2c1[nH]c1ccccc12`, the pEC50 is under 3.70 and the pIC50 was under 3.70.
In the case of `O=c1[nH][nH]c(=O)c2c1ccc1oc3ccccc3c12`, the pEC50 was under 3.70 and the pIC50 was under 3.70.
In the case of `O=C1Sc2ccc(Cl)cc2C(=O)N2CCSC12` (stereo unspecified), the pEC50 is under 4.30 and the pIC50 was under 4.30.
In the case of `Cc1ncc(N)c(C(=O)O)n1`, the pEC50 was under 2.79 and the pIC50 was under 2.79.
Take `CCOP(=O)(OCC)/C(C#N)=C/c1cccn1N(C)C`: the negative-log EC50 (pEC50) was under 3.59 and the pIC50 is 3.61.
Turning to `CC(=O)CCC1(c2ccccc2)OC(=O)C(C#N)=C1c1ccccc1` (stereo unspecified), the outcome was inactive.
On to `CCOC(=O)C(=O)/C(=C/n1c(=S)[nH]c2ccc([N+](=O)[O-])cc21)C(=O)OCC`, for which the pEC50 was under 3.70 and the pIC50 was 4.11.
With `Cc1cc(O)cc(C)c1Cl`, the pEC50 was 3.79 and the pIC50 is under 3.70.
Regarding `COc1cc(N)c2c(c1)SC(c1ccccc1)C(=O)N2` (stereo unspecified), the pEC50 was under 3.70 and the pIC50 is 3.92.
The matching figures for `COc1cc(Cc2cnc(N)nc2N)cc(OC)c1OC`: under 3.70 and under 3.70.
Regarding `c1ccc2c(c1)cc(C1NCCc3[nH]cnc31)c1ccccc12` (stereo unspecified), the pEC50 was under 4.62 and the pIC50 was 4.82.
Turning to `C/C(=C\[C@H]1C[C@@H]([C@@H]2CC[C@]34C[C@]23C=C[C@@H]2[C@@]3(C)CC=C5C[C@@H](c6ccccc6)OC[C@]5(C)[C@@H]3C[C@@H](O)[C@]24C)C(=O)O1)CO`, the pEC50 is under 3.70 and the negative-log IC50 (pIC50) is 5.96.
On to `Cc1ccc(S(=O)(=O)N/N=C(\c2nc3ccc(Cl)cc3[nH]c2=O)C(O)c2cccc([N+](=O)[O-])c2)cc1` (stereo unspecified), for which the pEC50 was under 3.33 and the pIC50 was 3.79.
As for `NS(=O)(=O)c1ccc(CNC(=O)c2ccccc2SC(=O)OCCCCCl)cc1`, the pEC50 is 5.33 and the pIC50 was 3.89.
For `CN1CCC/C1=N\c1scc(-c2ccc(Br)cc2)[n+]1-c1ccccc1` the same measures were under 4.42 and 5.24.
`COc1cc2c(cc1O)[C@@]1(Cc3ccc(OC)c(OC)c3)CCC(=O)N1CC2`: the result was inactive.
`O=C1C=C(NC(=O)C2CCCCC2)c2ncccc2C1=O`: the result was inactive.
With `O=C1N(Cl)C2(c3ccccc3)N(Cl)C(=O)N(Cl)C2(c2ccccc2)N1Cl` (stereo unspecified), the pEC50 is under 3.70 and the pIC50 was under 3.70.
As for `C#CCNC(CCCN=C(N)N)C(=O)O` (stereo unspecified), the pEC50 was under 3.70 and the negative logarithm of the IC50 (pIC50) is under 3.70.
Regarding `CCCCCCCCCCCCCCCc1ccc(OCC(O)CO)cc1` (stereo unspecified), the pEC50 is under 4.72 and the pIC50 was under 4.72.
In the case of `CN(C)c1ccc(/C=C(\C#N)c2ccc(F)cc2F)cc1`, the pEC50 is under 3.70 and the pIC50 was 5.92.
Turning to `CC(=O)NNc1nc(C)c(C(=O)NNC(=O)C(=O)Nc2ccc([N+](=O)[O-])cc2[N+](=O)[O-])s1`, the pEC50 was under 3.69 and the pIC50 was 4.42.
With `CC1(C)C=[N+]([O-])C(C)(C)N1O`, the pEC50 was under 3.70 and the pIC50 is under 3.70.
`COC1C2c3ccccc3C(C#N)(Cc3ccc4c(c32)OCO4)N1C(=O)c1ccccc1` (stereo unspecified): the result was inactive.
For `N#CC1C(=O)SC2c3ccccc3C(=O)c3ccccc3C12` (stereo unspecified), the pEC50 was under 3.70 and the pIC50 was 3.88.
For `Nc1ncnc2c1ccn2COC(CO)CO`, the pEC50 is under 3.70 and the pIC50 was under 3.70.
In the case of `O=C(O)CC(Cc1ccc2c(c1)OCO2)C(=O)O` (stereo unspecified), the pEC50 is under 3.70 and the pIC50 is under 3.70.
For `CC[N+]12CN3CN(CN(C3)C1)C2`, the pEC50 is under 3.07 and the pIC50 is 3.36.
Regarding `Cc1ccc(NC(=O)c2c(N)c(C#N)c3n2CCC3)cc1`, the pEC50 is under 3.70 and the pIC50 is under 3.70.
With `Clc1ccc(C2ON=C(c3ccccc3)N2C23CC4CC(CC(C4)C2)C3)c(Cl)c1` (stereo unspecified), the pEC50 is under 3.70 and the pIC50 was under 3.70.
On to `O=C(O)c1cc2sc(C(=O)O)cc2s1`, for which the result was inactive.
On to `Cc1cc(Cc2c(F)c(F)c(C(c3cc(C)no3)c3c(F)c(F)c(F)c(F)c3F)c(F)c2F)on1` (stereo unspecified), for which the pEC50 is under 3.70 and the pIC50 was 5.47.
Take `O=S1(c2ccccc2)=NC(=S)Nc2ccccc21` (stereo unspecified): the pEC50 was 4.76 and the pIC50 is under 3.70.
For `Cc1ccc2cc(NC(=O)CN)c3ccc(C)nc3c2n1` the same measures were under 4.70 and 5.43.
With `O=C1OC(Cc2ccccc2)(N2CCCC2=O)C1c1ccccc1` (stereo unspecified), the pEC50 was under 3.95 and the pIC50 was under 3.95.
Consider `Cc1ccc([N+](=O)[O-])cc1NC(=O)C(=O)C1CCC2=C(Sc3ccccc3N2)C1=O` (stereo unspecified), for which the pEC50 was under 3.93 and the negative logarithm of the IC50 (pIC50) was under 3.93.

What is called pEC50 is the EC50 on a negative log10 scale, so that one unit is a factor of ten. The term pIC50 denotes the IC50 on a negative log10 scale, so that one unit is a factor of ten. A lower pIC50 goes with a high IC50.
